Target: V1a (Homo sapiens, UniProt P37288)
Experiment: Human vasopression V1a receptor binding assay
Parameters: host or cells: CHO cells (hV1a cell line), whole adherent cells
Conditions: hV1a cell line (CHO); for IC50: 1 nM 3H-AVP, Table 17, read-out: V1a Binding Affinity (IC50 (nM)); for Ki: Table 18
Description: Human vasopression V1a receptor binding assay. A cell line expressing the human V1a receptor in CHO cells (henceforth referred to as the hV1a cell line) was obtained from Dr. Michael Brownstein, NIMH, Bethesda, Md., USA. The hV1a cDNA sequence is described by Thibonnier et al., Journal of Biological Chemistry, 269, 3304-3310 (1994), and the expression method was the same as described by Morel et al. (1992). The hV1a cell line was grown in alpha-MEM with 10% fetal bovine serum and 250 ug/ml G418 (Gibco, Grand Island, N.Y., USA). For competitive binding assay, hV1a cells were plated into 6-well culture plate at 1:10 dilution from a confluency flask, and maintained in culture for at least two days. Culture medium was then removed, cells were washed with 2 ml binding buffer (25 mM Hepes, 0.25% BSA, 1×DMEM, PH=7.0). To each well, 990 μl binding buffer containing 1 nM 3H-AVP was added, and followed by 10 μl series diluted Example compounds dissolved in DMSO. […] 100 nM cold AVP (Sigma) was used to assess non-specific binding. Cells were incubated for 45 minutes at 37° C., assay mixture was removed and each well was washed three times with PBS (pH=7.4). 1 ml 2% SDS was added per well and plates were let sit for 30 minutes. The whole content in a well was transferred to a scintillation vial. Each well was rinsed with 0.5 ml PBS which was then added to the corresponding vial. Scintillation fluid (Ecoscint, National Diagnostics, Atlanta, Ga.) was then added at 3 ml per vial. Samples were counted in a liquid scintillation counter (Beckman LS3801). IC50 values were calculated by Prism Curve fitting software.
All of the alkanedioic esters and amides exemplified in the foregoing examples dissolved in DMSO were tested in this assay. Binding curves were generated according to methods described by Thibonnier et al. (1994). [^3H]-AVP was added to the hV1a cell cultures followed by 10 fold dilutions of each test compound.

V1a, sequence (P37288 whole entry): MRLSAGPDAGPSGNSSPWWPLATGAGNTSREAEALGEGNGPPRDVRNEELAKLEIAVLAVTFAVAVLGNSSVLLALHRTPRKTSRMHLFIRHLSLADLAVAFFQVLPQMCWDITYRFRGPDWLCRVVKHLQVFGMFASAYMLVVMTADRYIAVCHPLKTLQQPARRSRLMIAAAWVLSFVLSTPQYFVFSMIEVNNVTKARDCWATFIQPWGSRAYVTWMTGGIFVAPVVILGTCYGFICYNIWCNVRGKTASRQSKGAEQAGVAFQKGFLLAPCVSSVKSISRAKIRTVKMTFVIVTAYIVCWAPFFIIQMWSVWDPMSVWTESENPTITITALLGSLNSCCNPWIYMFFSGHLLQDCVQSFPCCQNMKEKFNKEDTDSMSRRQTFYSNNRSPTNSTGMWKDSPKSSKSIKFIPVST

Structure (SMILES) | IC50 [nM] | Ki [nM]
O=C(NC1(c2ccc(Cl)cc2)CCCC1)[C@H](CCC(=O)N1CCN(C2CCCCC2)CC1)N1C(=O)[C@@H](N2C(=O)OC[C@@H]2c2ccccc2)[C@H]1/C=C/c1ccccc1 [Example 221AQ] | ~50 | 
O=C(NCc1cccc(C(F)(F)F)c1)[C@H](CCC(=O)N1CCN(C2CCCCC2)CC1)N1C(=O)[C@@H](N2C(=O)OC[C@@H]2c2ccccc2)[C@H]1/C(Cl)=C/c1ccccc1 [Example 226] | 0.49 | 0.3
O=C(NCc1cccc(C(F)(F)F)c1)[C@H](CCC(=O)N1CCN(Cc2ccccc2)CC1)N1C(=O)[C@@H](N2C(=O)OC[C@@H]2c2ccccc2)[C@H]1/C=C/c1ccccc1 [Example 95] |  | 1.08
O=C(NCc1cccc(C(F)(F)F)c1)C(C(=O)N1CCC(CCN2CCCCC2)CC1)N1C(=O)[C@@H](N2C(=O)OC[C@@H]2c2ccccc2)[C@H]1/C=C/c1ccccc1 (mixture of isomers) [Example 42A] | 1.77 | 1.17
O=C(NCc1ccco1)[C@H](CCC(=O)N1CCN(C2CCCCC2)CC1)N1C(=O)[C@@H](N2C(=O)OC[C@@H]2c2ccccc2)[C@H]1/C=C/c1ccccc1 [Example 211] | 5.37 | 3.29
CCCCN1CCN(C(=O)C(C(=O)NCc2cccc(C(F)(F)F)c2)N2C(=O)[C@@H](N3C(=O)OC[C@@H]3c3ccccc3)[C@H]2/C=C/c2ccccc2)CC1 (mixture of isomers) [Example 40] |  | 6.5
O=C(C[C@@H](C(=O)NCc1cccc(C(F)(F)F)c1)N1C(=O)[C@@H](N2C(=O)OC[C@@H]2c2ccccc2)[C@H]1/C=C/c1ccccc1)NC1CCN(Cc2ccccc2)CC1 [Example 63] |  | 1.13
CCCCN1CCN(C(=O)CC[C@@H](C(=O)NCc2cccc(C(F)(F)F)c2)N2C(=O)[C@@H](N3C(=O)OC[C@@H]3c3ccccc3)[C@H]2/C(Cl)=C/c2ccccc2)CC1 [Example 229] | 1.53 | 0.94
O=C(N[C@@H]1CCc2ccccc21)[C@H](CCC(=O)N1CCN(C2CCCCC2)CC1)N1C(=O)[C@@H](N2C(=O)OC[C@@H]2c2ccccc2)[C@H]1/C=C/c1ccccc1 [Example 221S] | 5.03 | 3.08
O=C(NCc1cccc(OC(F)(F)F)c1)[C@H](CCC(=O)N1CCN(C2CCCCC2)CC1)N1C(=O)[C@@H](N2C(=O)OC[C@@H]2c2ccccc2)[C@H]1/C=C/c1ccccc1 [Example 172] | 4.5 | 2.78
COc1ccc(C2(NC(=O)[C@H](CCC(=O)N3CCN(C4CCCCC4)CC3)N3C(=O)[C@@H](N4C(=O)OC[C@@H]4c4ccccc4)[C@H]3/C=C/c3ccccc3)CC2)cc1 [Example 221AO] | ~100 | 
O=C(NCc1cccc(C(F)(F)F)c1)[C@H](CCC(=O)N1CCN(CC2CCCCC2)CC1)N1C(=O)[C@@H](N2C(=O)OC[C@@H]2c2ccccc2)[C@H]1/C=C/c1ccccc1 [Example 120] |  | 0.46
Cc1cccc(CN(C)C(=O)[C@H](CCC(=O)N2CCN(C3CCCCC3)CC2)N2C(=O)[C@@H](N3C(=O)OC[C@@H]3c3ccccc3)[C@H]2/C=C/c2ccccc2)c1 [Example 221A] | 2.71 | 1.66
CCCN1CCN(C(=O)CC[C@@H](C(=O)NCc2cccc(C(F)(F)F)c2)N2C(=O)[C@@H](N3C(=O)OC[C@@H]3c3ccccc3)[C@H]2/C=C/c2ccccc2)CC1 [Example 120B] | 2.93 | 1.79
O=C(NCc1cccc(C(F)(F)F)c1)C(C(=O)N1CCN(CCc2ccccc2)CC1)N1C(=O)[C@@H](N2C(=O)OC[C@@H]2c2ccccc2)[C@H]1/C=C/c1ccccc1 (mixture of isomers) [Example 38] |  | 85
O=C(NCc1cccc(C(F)(F)F)c1)[C@H](CC(=O)N1CCCN(Cc2ccccc2)CC1)N1C(=O)[C@@H](N2C(=O)OC[C@@H]2c2ccccc2)[C@H]1/C=C/c1ccccc1 [Example 82] |  | 5.12
